Test results: paper PMC10363979, “Effects of bergapten on the pharmacokinetics of macitentan in rats both in vitro and in vivo” (Frontiers in Pharmacology, 2023)
Read-outs that look alike come from different tables or passages of the source.

Key:
[1] = Plasma Cmax of bergapten in rat (literature); assay type: in vivo; details: 3 mg/kg bergapten, converted from ng/mL, ref Li et al, 2014
[2] = molecular target: T1, recombinant human CYP3A4 (rCYP3A4) (Homo sapiens, UniProt P08684); assay: Inhibition of macitentan metabolism (ACT-132577 formation) by bergapten and Michaelis-Menten kinetics in recombinant human CYP3A4; assay type: in vitro ADME
T1 construct: made in house
Protocol: (§1) The concentrations of macitentan and ACT-132577 were determined by UPLC-MS/MS, which consisted of an Acquity I-class UPLC system (Waters Corp., Milford, MA, United States) and a Xevo TQD triple quadrupole mass spectrometer (Waters Corporation, Milford, MA, United States) equipped with an electrospray ionization source. Chromatographic separation was performed on an Acquity UPLC BEH C18 column (2.1 × 100 mm, 1.7 μm) at 40°C. The mobile phase was composed of acetonitrile (solvent A) and water containing 0.1% formic acid (solvent B, pH 2.74). The gradient condition of mobile phases was set with a flow rate of 0.4 mL/min as follows: 0–0.5 min, 20% A; 0.5–1 min, 70% A; 1–2 min, 95% A; 2–2.6 min, 20% A. Positive ion and selective multiple reaction monitoring (SRM) modes were used for quantitative analysis with the precursor to product ion transitions of m/z 588.9→203.4 for macitentan, 546.9→200.6 for ACT-132577, and 285.0→193.0 for diazepam. The cone voltage and collision voltage were 28V, 14 V for macitentan, 26V, 28 V for ACT-132577, and 35V, 30 V for diazepam. The mass spectrometry parameters of the source temperature, desolvation temperature, cone gas flow rate, and desolvation gas flow rate were 150°C, 500°C, 50 L/h, and 1000 L/h, respectively.
(§2) The effects of BP on macitetan metabolism in vitro were investigated using RLMs, HLMs, and rCYP3A4. And, the formation of ACT-132577 was considered as an indicator of inhibitory effect. The 200 μL incubation system contained NADPH (1 mM), potassium phosphate buffer (100mM, pH = 7.4), macitentan, BP, and RLMs (0.3 mg/mL), HLMs (0.2 mg/mL), or rCYP3A4 (0.13 mg/mL). Firstly, a series concentration of macitentan with 1, 2.5, 5, 10, 25, 50 and 100 μM were included in the reaction buffer to determine the Km and Vmax values. Then, a series concentration of BP following 0, 0.01, 0.1, 1, 5, 10, 50 and 100 μM were used for the determination of IC50 value of BP against macitentan. […] The system was pre-incubated at 37°C for 5 min, and 10 μL NADPH was added to initiate the reaction. […]

[3] = tested on: Rat liver microsomes (RLMs); assay: Inhibition of macitentan metabolism (ACT-132577 formation) by bergapten and Michaelis-Menten kinetics in rat liver microsomes; assay type: in vitro ADME; details: RLMs
Protocol: as §1
(§3) The effects of BP on macitetan metabolism in vitro were investigated using RLMs, HLMs, and rCYP3A4. And, the formation of ACT-132577 was considered as an indicator of inhibitory effect. The 200 μL incubation system contained NADPH (1 mM), potassium phosphate buffer (100mM, pH = 7.4), macitentan, BP, and RLMs (0.3 mg/mL), HLMs (0.2 mg/mL), or rCYP3A4 (0.13 mg/mL). Firstly, a series concentration of macitentan with 1, 2.5, 5, 10, 25, 50 and 100 μM were included in the reaction buffer to determine the Km and Vmax values. Then, a series concentration of BP following 0, 0.01, 0.1, 1, 5, 10, 50 and 100 μM were used for the determination of IC50 value of BP against macitentan. […] The system was pre-incubated at 37°C for 5 min, and 10 μL NADPH was added to initiate the reaction. After incubation for 30 min at 37°C, 200 μL ice-cold acetonitrile and 30 μL diazepam (500 ng/mL) were added to terminate the reaction. The samples were centrifuged at 13,000 rpm for 5 min, and the supernatant fraction (150 μL) was collected for UPLC-MS/MS analysis.

[4] = tested on: macitentan metabolism (formation of ACT-132577); assay: as above; assay type: in vitro ADME; details: rat, rat liver microsomes, pH 7.4, probe macitentan; RLMs 0.3 mg/mL, 30 min, 37°C; read-out: IC50 of BP on macitentan metabolism
Protocol: as §1, §3

[5] = parameters: method as in Li et al, 2014; details: rat, 3 mg/kg bergapten; ref Li et al, 2014; cited from earlier work
[6] = molecular target: macitentan metabolism (formation of ACT-132577) (Homo sapiens, UniProt P08684); assay: Inhibition of macitentan metabolism (ACT-132577 formation) by bergapten and Michaelis-Menten kinetics in human liver microsomes; assay type: in vitro ADME; details: human, pH 7.4
Protocol: as §1, §2

[7] = molecular target: human liver microsomes (HLMs) (Homo sapiens, UniProt P08684); assay: as above; assay type: in vitro ADME
Protocol: as §1, §2

ET receptor = tested on: ET receptor; parameters: method as in Iglarz et al, 2008; details: ref Iglarz et al, 2008, cited from earlier work; for Pharmacological activity of metabolite: Figure 1
[8] = cited from earlier work
[9] = Stability of macitentan and ACT-132577 in rat plasma (UPLC-MS/MS method validation); assay type: in vitro ADME
Protocol: as §1
Method validation, including accuracy, precision, recovery, matrix effects and stability, was conducted in accordance with the guidelines of the FDA and the European Medicines Agency.

[10] = Pharmacokinetic interaction between BP and macitentan in rats (plasma macitentan and ACT-132577); assay type: in vivo, Sprague-Dawley rats; details: for Cmax / Tmax / AUC(0-inf) / AUC(0-t) / CL/F / MRT last / MRT inf / half-life: Sprague-Dawley, rat, plasma, po, 20 mg/kg, macitentan in plasma, macitentan 20 mg/kg oral; for CL/F: read-out: CLz/F (converted); for MRT last: read-out: MRT(0-t); for MRT inf: read-out: MRT(0-∞); for half-life: read-out: t1/2z (converted)
Protocol: as §1
Twelve Sprague-Dawley rats were randomly assigned to two groups. BP (10 mg/kg) was continuously administered daily to rats in the experimental group for 7 days, whereas the 0.5% CMC-Na was orally administered once a day to rats in the control group. Rats were fasted overnight before dosing, with free access to water. Macitentan (20 mg/kg) was intragastrically administered 30 min after the last dose of BP or 0.5% CMC-Na on the seventh day. Blood samples (300 μL) were collected from the tail vein into 1.5 mL Eppendorf tubes containing 10 μL heparin sodium at the time points of 0.083, 0.25, 0.5, 1, 2, 3, 4, 6, 8, 12, 24, and 36 h after macitentan administration. Plasma was obtained after centrifugation of the blood samples at 4,000 rpm for 10 min and stored at −80°C for further analysis. Before UPLC-MS/MS analysis, 100 μL plasma was mixed with 200 μL acetonitrile and 30 μL diazepam (500 ng/mL) and then fractionated at 13,000 rpm for 5 min at 4°C. A 150 μL sample of the supernatant was collected for analysis.
All assays were performed in triplicate, and the results are expressed as mean ± standard deviation. The pharmacokinetic parameters of elimination half-life (t1/2), area under the plasma concentration-time curve (AUC), maximal plasma concentration (Cmax), time to peak plasma concentration, plasma clearance (CLz/F), apparent volume of distribution, and mean residence time were calculated using a non-compartment model with DAS software (version 3.2.8, Lishui People’s Hospital, China). Data analysis, statistical comparisons, and graphs were generated using GraphPad Prism software (version 7.0; GraphPad Software Inc., San Diego, CA, United States). Student’s t-test of variance following the least significant difference method was used for comparisons between the control and experimental groups. Statistical significance was set at p < 0.05.

[11] = parameters: method as in Sidharta et al, 2015; details: estimated; ref Sidharta et al, 2015; cited from earlier work
[12] = Inhibition of macitentan metabolism (ACT-132577 formation) by bergapten and Michaelis-Menten kinetics in rat liver microsomes; assay type: in vitro ADME; details: rat, rat liver microsomes, pH 7.4; RLMs
Protocol: as §1, §3

[13] = single dose macitentan, ref Atsmon et al, 2013
[14] = control group (0.5% CMC-Na 7 days)
[15] = experimental group (BP 10 mg/kg daily 7 days)
[16] = with BP 10 mg/kg vs without, p < 0.05

T1 sequence (P08684 whole entry): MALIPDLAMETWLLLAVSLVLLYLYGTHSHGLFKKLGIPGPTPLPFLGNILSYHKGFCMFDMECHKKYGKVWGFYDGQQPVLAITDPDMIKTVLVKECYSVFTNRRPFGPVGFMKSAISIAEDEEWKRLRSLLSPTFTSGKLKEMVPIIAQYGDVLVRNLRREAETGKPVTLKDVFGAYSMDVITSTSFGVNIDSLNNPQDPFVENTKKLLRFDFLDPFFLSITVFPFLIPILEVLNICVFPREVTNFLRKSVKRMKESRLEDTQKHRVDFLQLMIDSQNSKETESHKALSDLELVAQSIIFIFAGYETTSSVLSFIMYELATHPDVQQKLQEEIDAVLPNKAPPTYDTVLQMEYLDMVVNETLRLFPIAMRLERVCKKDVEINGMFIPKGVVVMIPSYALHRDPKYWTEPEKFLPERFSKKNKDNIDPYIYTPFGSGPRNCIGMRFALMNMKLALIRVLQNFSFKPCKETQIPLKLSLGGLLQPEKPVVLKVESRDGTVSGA
Sequence of human liver microsomes (HLMs) (P08684 2-503): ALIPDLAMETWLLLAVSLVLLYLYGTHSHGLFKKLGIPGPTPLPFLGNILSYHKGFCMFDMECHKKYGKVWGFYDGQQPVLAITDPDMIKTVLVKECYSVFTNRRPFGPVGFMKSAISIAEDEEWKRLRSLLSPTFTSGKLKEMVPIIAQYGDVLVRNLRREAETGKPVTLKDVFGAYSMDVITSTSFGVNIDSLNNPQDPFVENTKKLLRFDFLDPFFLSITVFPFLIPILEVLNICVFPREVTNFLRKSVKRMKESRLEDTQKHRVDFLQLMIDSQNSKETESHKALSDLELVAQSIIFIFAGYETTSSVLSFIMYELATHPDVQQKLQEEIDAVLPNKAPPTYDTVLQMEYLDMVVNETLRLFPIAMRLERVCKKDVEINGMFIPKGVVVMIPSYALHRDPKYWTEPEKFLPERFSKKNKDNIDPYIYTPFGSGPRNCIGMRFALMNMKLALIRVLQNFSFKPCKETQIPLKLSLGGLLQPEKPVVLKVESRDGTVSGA
Sequence of macitentan metabolism (formation of ACT-132577) (Homo sapiens, UniProt P08684) (P08684 2-503): as above

COc1c2ccoc2cc2oc(=O)ccc12 [BP, 5-methoxypsoralen]
Cmax [1]: ~2100 nM
Inhibition mechanism (Lineweaver-Burk) ([2]; rCYP3A4): competitive inhibition
IC50 ([2]; rCYP3A4 0.13 mg/mL, 30 min, 37°C, read-out: IC50 of BP on macitentan metabolism): 12.8 µM
Ki ([2]; read-out: Ki of BP on macitentan metabolism): 5.06 µM
Inhibition mechanism (Lineweaver-Burk) [3]: competitive inhibition
Ki ([3]; competitive inhibition, read-out: Ki of BP on macitentan metabolism): 1.39 µM
IC50 at 30 min [4]: 3.84 µM
Cmax [5]: around 447.72 ± 30.61 ng/mL
IC50 at 30 min [6]: 17.8 µM
Inhibition mechanism (Lineweaver-Burk) ([7]; HLMs): competitive inhibition
Ki ([7]; human, microsomes): 0.12 µM

CCCNS(=O)(=O)Nc1ncnc(OCC(=O)O)c1-c1ccc(Br)cc1 [ACT-373898]
Pharmacological activity of metabolite (ET receptor): Inactive

NS(=O)(=O)Nc1ncnc(OCCOc2ncc(Br)cn2)c1-c1ccc(Br)cc1 [ACT-132577]
Change in exposure in the presence of rifampin ([8]; ref Bruderer et al, 2012b): no significant change
Concentrations when macitentan coadministered with St. John’s Wort ([8]; ref Huppertz et al, 2018): unaltered
Exposure decrease in the presence of ketoconazole [8, 13]: 26%
Pharmacological activity of metabolite (ET receptor): Active
Potency relative to macitentan (less potent) (ET receptor; antagonism of the ET receptor): approximately five-fold
Stability RE (%) ([9]; 4°C, 24 h, 30 ng/mL): 106.81%
Stability RE (%) ([9]; 4°C, 24 h, 900 ng/mL): 104.77%
Stability RE (%) ([9]; 4°C, 24 h, 9000 ng/mL): 105.28%
Stability RE (%) ([9]; Room temperature, 6 h, 30 ng/mL): 109.84%
Stability RE (%) ([9]; Room temperature, 6 h, 900 ng/mL): 106.18%
Stability RE (%) ([9]; Room temperature, 6 h, 9000 ng/mL): 107.44%
Stability RE (%) ([9]; −80°C, 7days, 30 ng/mL): 105.76%
Stability RE (%) ([9]; −80°C, 7days, 900 ng/mL): 107.26%
Stability RE (%) ([9]; −80°C, 7days, 9000 ng/mL): 103.40%
Difference in pharmacokinetic parameters, experimental vs control group ([10]; with BP 10 mg/kg vs without, p > 0.05): no significant differences

CCCNS(=O)(=O)Nc1ncnc(OCCOc2ncc(Br)cn2)c1-c1ccc(Br)cc1 [macitentan]
Exposure reduction in the presence of rifampin ([8]; ref Bruderer et al, 2012b): four-fold
Exposure reduced to, coadministered with St. John’s Wort ([8]; ref Huppertz et al, 2018): approximately half
Exposure increase in the presence of ketoconazole [8, 13]: approximately two-fold
oral bioavailability [11]: 74%
Stability RE (%) ([9]; 4°C, 24 h, 4 ng/mL): 107.57%
Stability RE (%) ([9]; 4°C, 24 h, 160 ng/mL): 104.86%
Stability RE (%) ([9]; 4°C, 24 h, 1,600 ng/mL): 106.50%
Stability RE (%) ([9]; Room temperature, 6 h, 4 ng/mL): 113.51%
Stability RE (%) ([9]; Room temperature, 6 h, 160 ng/mL): 109.43%
Stability RE (%) ([9]; Room temperature, 6 h, 1,600 ng/mL): 105.63%
Stability RE (%) ([9]; −80°C, 7days, 4 ng/mL): 104.39%
Stability RE (%) ([9]; −80°C, 7days, 160 ng/mL): 103.80%
Stability RE (%) ([9]; −80°C, 7days, 1,600 ng/mL): 105.44%
Vmax of macitentan metabolism [3]: 0.50 nmol/min/mg protein
Km at 30 min [12]: 4.82 µM
Cmax ([10]; control group): 1340 ng/mL
Tmax ([10]; control group): 1.92 ± 0.8 h
AUC(0-inf) [10, 14]: 7900 ng·h/mL
AUC(0-t) [10, 14]: 7870 ng·h/mL
CL/F ([10]; control group): 43.3 mL/min/kg
MRT last ([10]; control group): 5.48 ± 0.96 h
MRT inf ([10]; control group): 5.6 ± 1.08 h
half-life ([10]; control group): 4.53 ± 0.9 h
AUC(0-inf) [10, 15]: 20400 ng·h/mL
AUC(0-t) [10, 15]: 20300 ng·h/mL
Cmax [10, 15]: 3000 ng/mL
Tmax [10, 15]: 2.5 ± 0.55 h
CL/F [10, 15]: 17.8 mL/min/kg
MRT last [10, 15]: 5.91 ± 0.74 h
MRT inf [10, 15]: 6.12 ± 0.8 h
half-life [10, 15]: 5.07 ± 1.15 h
CLz/F decreased by, experimental vs control group ([10]; with BP 10 mg/kg vs without): 0.59 fold
AUC(0-t) enhanced by, experimental vs control group [10, 16]: 1.57 fold
AUC(0-∞) enhanced by, experimental vs control group [10, 16]: 1.58 fold
Cmax enhanced by, experimental vs control group [10, 16]: 1.24 fold
